# Test results from US11324829B2, “Antiseptic agent comprising meglumine or salt thereof” (priority 2016, dated 2022).
# Test system: E. coli, P. aeruginosa, S. aureus, C. albicans, A. brasiliensis
# Test: Evaluation against category IA standard, Preservatives-Effectiveness Tests, Japanese Pharmacopoeia 16th edition (all 5 strains)
# Format: cell-based
# Settings: summary of Tables 1 to 3, against each of the strains
# Protocol: The following strains were used as inoculum strains.
# A test sample of each formulation was inoculated with an inoculum microorganism liquid so that the concentration of the microorganism liquid in the test sample was 10^5 to 10^6 cells/mL (for each of the 5 strains). Specifically, an inoculum microorganism liquid was prepared for each strain at 10^7 to 10^8 cfu/mL, and inoculated into a test sample of each of Examples 1 to 11 and Comparative Example 1, and uniformly mixed to obtain a sample, so that the inoculum microorganism liquid was at 10^5 to 10^6 cfu/mL. These samples were stored at 20 to 25° C. under a light shielding condition. At sampling points (after 14 days or 28 days), 1 mL of each sample was withdrawn with a micropipette to measure a viable cell count. […]
# The test results in Tables 1 to 3 are each shown as the common logarithm value of the ratio (B/A) of a cell count (B) at the time of inoculation to a cell count (A) of viable cells. For example, the value “1” means that the measured viable cell count is as low as 10% of the inoculum cell count. Further, the formulations were evaluated whether they satisfied the standard of “category IA” according to the informative “Preservatives-Effectiveness Tests” defined in The Japanese Pharmacopoeia, 16th edition.
smiles,measurement,value
"CNC[C@H](O)[C@@H](O)[C@H](O)[C@H](O)CO [meglumine, Meglumine]",Antiseptic effect (in words),alone has an antiseptic effect
